The record followed here is paper PMC12098869, “An mRNA-display derived cyclic peptide scaffold reveals the substrate binding interactions of an N-terminal cysteine oxidase” (Nature Communications, 2025).

In general, KD refers to a measure of binding affinity in units of concentration. Read a low KD as higher affinity. In general, Kd refers to the constant that tells how readily two partners part at equilibrium. A lower Kd goes with tighter binding.

Values joined by “and” are separate entries in the source; they are usually repeats but may differ in a detail not shown here. Identical values can stand only once. Where a SMILES comes first, the peptide text is derived from it. Bridges are numbered along the chain shown (N, C = ends). Where no end group is shown, it is not given here.

In one assay the test system is ADO-D206A. Nature of the assay: SPR binding of substrate peptides to ADO variant. On the set-up: species or system human. An excerpt:
(§1) Having verified the accuracy of the substrate analogue-bound crystal structures using MD simulations, key active site residues were mutated to assess their impact on binding and activity using SPR and LCMS. They were chosen based on their proximity to the substrate moieties and their conservation across species, including plants, where NCOs are called plant cysteine oxidases (PCOs; Fig. 5)[9],[10]. Two representative substrates, RGS5_2-15 and IL32_2-15 (a synthetic peptide corresponding to the methionine excised N-terminus of IL32, residues 2–15), were tested to compare interactions with different amino acid sequences.
(§2) SPR measurements were made using a Biacore T200 (Cytiva) instrument and data were analysed using the Biacore Insight Evaluation Software. Biotinylated-ADO was immobilised on a Biotin CAP chip (Cytiva) with a target density of ∼2500–3000 RU and peptide/protein substrates were injected over the chip. Experiments were conducted at 4 °C using both multi-cycle (fit using the equilibrium steady state affinity 1:1 binding model) and single-cycle kinetics mode (fit using a 1:1 binding model). A buffer comprising 20 mM HEPES pH 7.5, 500 mM NaCl, 10 mM DTT, and 0.1% (v/v) tween-20 was used as the running buffer at a flow rate of 50 μL/minute.
Supplementary Figure 20. SPR analysis of ADO variants with RGS5 peptide. […]

For another assay, the target named is T1, ADO-Y212A (Homo sapiens, UniProt Q96SZ5, Y212A).
T1 construct: Full-length human ADO (Uniprot ID: Q96SZ5) was cloned; made in house; host or cells: E. coli Rosetta2(DE3)
Nature of the assay: SPR binding of substrate peptides to ADO variant.
Source text: as §1, §2
(§3) Supplementary Figure 20. SPR analysis of ADO variants with RGS5 peptide. (Left) Representative SPR sensorgram for the titration of RGS52-15 with amino acid substituted ADO. (Right) Fits of the equilibrium responses from the sensorgram in the left panels to a 1:1 binding model. The Kᴅ values are shown (Kᴅ given as the geometric mean of a minimum of three independent SPR measurements (n=3) with standard error). […] The […]
(§4) sensorgram is shown in red and the fit to the data is shown in black. The concentrations of RGS52-15 used in the titration are 25.6 nM, 64 nM, 160 nM, 400 nM, 1000 nM. The Kᴅ value is shown (Kᴅ given as the geometric mean of a minimum of three independent SPR measurements). Source data are provided as Source Data file.
(§5) (1 picture or pasted object on this page, not shown here)
(§6) Supplementary Figure 21. SPR analysis of ADO variants with IL32 peptide. (Left) Representative SPR sensorgram for the titration of IL322-15 with amino acid substituted ADO. (Right) Fits of the equilibrium responses from the sensorgram in the left […]
(§7) sensorgram is shown in red and the fit to the data is shown in black. The concentrations of IL322-15 used in the titration are 25.6 nM, 64 nM, 160 nM, 400 nM, 1000 nM. The Kᴅ value is shown (Kᴅ given as the geometric mean of a minimum of three independent
In general terms: Surface plasmon resonance follows binding to a sensor surface in real time, without labels.

Another assay deals with T2, ADO-I109A (Homo sapiens, UniProt Q96SZ5, I109A).
T2 construct: Full-length human ADO (Uniprot ID: Q96SZ5) was cloned; made in house; host or cells: E. coli Rosetta2(DE3)
In words: SPR binding of substrate peptides to ADO variant.
Source text: as §1, §2, §3, §4, §5, §6, §7

Another assay has as its target T3, ADO-Y87F (Homo sapiens, UniProt Q96SZ5, Y87F).
T3 construct: Full-length human ADO (Uniprot ID: Q96SZ5) was cloned; made in house; host or cells: E. coli Rosetta2(DE3)
In words: SPR binding of substrate peptides to ADO variant.
Source text: as §1, §2, §3, §4, §5, §6, §7

For assay [1], the target named is T4, 2-aminoethanethiol dioxygenase (ADO), wild type, biotinylated (pQE80L-Navi-ADO) (human, biotin on the Avi tag).
T4 construct: 2-aminoethanethiol dioxygenase (ADO), human, full length; also called Biotinylated-ADO; source: E. coli Rosetta2(DE3), purified (Ni-NTA, SEC); not shown: Avi tag, N-terminal, kept; His6, N-terminal, kept
T4 chain: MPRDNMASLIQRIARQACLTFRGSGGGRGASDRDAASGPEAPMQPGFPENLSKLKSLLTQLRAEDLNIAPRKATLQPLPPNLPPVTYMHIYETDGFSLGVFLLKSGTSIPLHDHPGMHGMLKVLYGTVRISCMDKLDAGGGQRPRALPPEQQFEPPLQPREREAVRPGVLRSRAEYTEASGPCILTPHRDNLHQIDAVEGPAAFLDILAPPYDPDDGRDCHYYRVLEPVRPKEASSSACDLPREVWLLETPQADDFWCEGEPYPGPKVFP
In words: SPR; single-cycle kinetics (SCK), 1:1 binding model; biotinylated ADO or variant immobilised on a Biotin CAP chip, peptide injected at 25.6, 64, 160, 400, 1000 nM; 4 °C; 20 mM HEPES pH 7.5, 500 mM NaCl, 10 mM DTT, 0.1% (v/v) tween-20; 50 μL/minute. The following applies: both partners purified.

The target of assay [2] is T5, 2-aminoethanethiol dioxygenase (ADO), full-length human, N-terminally His-tagged and biotinylated … (human, UniProt Q96SZ5 1-270, biotin (biotinylated during expression, 0.2 mM biotin added)).
T5 sequence (looked up): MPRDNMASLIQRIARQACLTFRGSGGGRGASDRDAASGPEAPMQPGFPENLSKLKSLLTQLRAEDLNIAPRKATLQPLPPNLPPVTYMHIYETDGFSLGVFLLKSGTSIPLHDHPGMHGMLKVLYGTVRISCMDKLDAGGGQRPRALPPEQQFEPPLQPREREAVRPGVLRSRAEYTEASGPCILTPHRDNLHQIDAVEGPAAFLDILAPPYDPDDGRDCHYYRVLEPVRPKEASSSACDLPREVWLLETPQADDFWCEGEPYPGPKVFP
Nature of the assay: cell-based or functional assay.

Assay [3] deals with 2-aminoethanethiol dioxygenase (ADO), wild type, biotinylated (pQE80L-Navi-ADO) (human). In words: SPR; single-cycle kinetics (SCK), 1:1 binding model; biotinylated ADO or variant immobilised on a Biotin CAP chip, peptide injected at 25.6, 64, 160, 400, 1000 nM; 4 °C; 20 mM HEPES pH 7.5, 500 mM NaCl, 10 mM DTT, 0.1% (v/v) tween-20; 50 μL/minute.
Assay [4] shares this target.
Assay [5] addresses T6, 2-aminoethanethiol dioxygenase (ADO), full-length human, N-terminally His-tagged and biotinylated … (human, UniProt Q96SZ5 1-270, biotin (biotinylated during expression, 0.2 mM biotin added)).
T6 construct: 2-aminoethanethiol dioxygenase (ADO), human, UniProt Q96SZ5, full length; Immobilised through its biotin on a Biotin CAP chip for SPR; also called wild type ADO; Biotinylated-ADO; source: E. coli Rosetta2(DE3), purified (Ni-NTA, SEC); not shown: biotinylation tag (from the vector pQE80L-Navi), N-terminal, kept
T6 sequence (looked up): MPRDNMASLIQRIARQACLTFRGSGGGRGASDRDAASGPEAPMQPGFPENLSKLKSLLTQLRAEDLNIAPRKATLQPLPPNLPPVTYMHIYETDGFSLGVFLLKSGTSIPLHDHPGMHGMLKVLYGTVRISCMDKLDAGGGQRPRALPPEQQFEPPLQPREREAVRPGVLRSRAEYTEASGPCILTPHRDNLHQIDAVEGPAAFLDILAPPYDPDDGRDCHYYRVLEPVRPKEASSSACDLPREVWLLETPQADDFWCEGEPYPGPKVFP
In words: SPR; single-cycle kinetics (1:1 binding model); biotinylated ADO immobilised on a Biotin CAP chip (~2500-3000 RU), cyclic peptide injected; Biacore T200, 4 °C; 20 mM HEPES pH 7.5, 500 mM NaCl, 10 mM DTT, 0.1% tween-20; 50 µL/minute; each cell is one of three independent measurements. The note with it: both partners purified.

Assay [6] deals with 2-aminoethanethiol dioxygenase (ADO), full-length human, N-terminally His-tagged and biotinylated (pQE80L-Navi-ADO) (human) (UniProt Q96SZ5).

T3 sequence (Q96SZ5 whole entry Y87F): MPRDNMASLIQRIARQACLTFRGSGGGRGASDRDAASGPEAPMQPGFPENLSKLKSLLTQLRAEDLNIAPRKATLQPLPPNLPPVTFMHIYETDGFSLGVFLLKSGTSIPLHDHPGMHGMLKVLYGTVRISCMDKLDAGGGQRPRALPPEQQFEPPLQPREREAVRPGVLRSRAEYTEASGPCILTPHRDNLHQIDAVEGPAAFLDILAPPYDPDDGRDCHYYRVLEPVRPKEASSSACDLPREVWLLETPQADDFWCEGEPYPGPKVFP
T1 sequence (Q96SZ5 whole entry Y212A): as the sequence (Q96SZ5 whole entry Y87F) above, with F87Y, Y212A counted along it
T2 sequence (Q96SZ5 whole entry I109A): as the sequence (Q96SZ5 whole entry Y87F) above, with F87Y, I109A counted along it

As to `CSCC[C@H](NC(=O)[C@H](CC(=O)O)NC(=O)[C@H](CC(=O)O)NC(=O)[C@H](CO)NC(=O)[C@H](CC(C)C)NC(=O)[C@@H](NC(=O)[C@H](CCCCN)NC(=O)[C@@H]1CCCN1C(=O)[C@H](Cc1ccccc1)NC(=O)[C@@H](N)CS)C(C)C)C(=O)N[C@@H](CCCCN)C(=O)N[C@@H](CCCCN)C(=O)N[C@@H](CC(C)C)C(=O)N[C@@H](CCCCN)C(N)=O` [14-mer IL32] (H-CFPKVLSDDMKKLK-NH2; C-terminus assumed), in the assay with ADO-D206A, the “binding to ADO-D206A (in words)” value is on record as “no binding”. The KD at ADO-Y212A (replicate 2) and at ADO-Y212A (replicate 3) was 24700 nM in each case. Besides, the “fold increase in KD relative to wild type ADO” value on ADO-I109A is reported as 35 fold.
For the molecule `CC(C)C[C@H](NC(=O)CNC(=O)[C@H](CCCCN)NC(=O)[C@@H](N)CS)C(=O)N[C@@H](C)C(=O)N[C@@H](C)C(=O)N[C@@H](CC(C)C)C(=O)N1CCC[C@H]1C(=O)N[C@@H](Cc1c[nH]cn1)C(=O)N[C@@H](CO)C(=O)N[C@@H](CS)C(=O)N[C@@H](CC(C)C)C(=O)N[C@@H](CCC(=O)O)C(=O)N[C@@H](CCCNC(=N)N)C(N)=O` [14-mer RGS5] (H-CKGLAALPHSCLER-NH2; C-terminus assumed), the “binding to ADO-D206A (in words)” value in the assay with ADO-D206A is reported as “no binding”. The “fold increase in KD relative to wild type ADO” value at ADO-I109A is recorded as 2 fold. In addition, the equilibrium dissociation constant (KD) at ADO-Y87F (replicate 1) and at ADO-Y87F (replicate 3) was 339 nM each time.

B1: cyclic peptide CP6 (peptide)
peptide: {CH2CO}-YIVKTFWLGSHRQC-NH2
modifications: thioether N-14
SMILES: CC[C@H](C)[C@@H]1NC(=O)[C@H](Cc2ccc(O)cc2)NC(=O)CSC[C@@H](C(N)=O)NC(=O)[C@H](CCC(N)=O)NC(=O)[C@H](CCCNC(=N)N)NC(=O)[C@H](Cc2c[nH]cn2)NC(=O)[C@H](CO)NC(=O)CNC(=O)[C@H](CC(C)C)NC(=O)[C@H](Cc2c[nH]c3ccccc23)NC(=O)[C@H](Cc2ccccc2)NC(=O)[C@H]([C@@H](C)O)NC(=O)[C@H](CCCCN)NC(=O)[C@H](C(C)C)NC1=O
notes: selected by RaPID mRNA display against ADO; also called ADO-L-06; source: synthetic peptide (Fmoc-SPPS)
In [1], B1 returned a Kd of 30 nM.

B2: CP6-K4A (peptide)
peptide: {CH2CO}-YIVATFWLGSHRQC
modifications: thioether N-14
For the molecule B2, the “IC50 of inhibition of ADO activity” value in assay [2] was found to be 21000 nM.

B3: CP6-F6S (peptide)
peptide: {CH2CO}-YIVKTSWLGSHRQC
modifications: thioether N-14
notes: the substitution F6S is to be applied to them; Single amino acid substituent of CP6; source: synthetic peptide
Regarding B3, the Kd in assay [3] was 5.8 nM; in assay [5] it was 5.8 nM and 5.64 nM and 5.96 nM. The same molecule had an IC50 of inhibition of ADO activity (oxidation of RGS5 (2-15) followed by LCMS; enzyme from the pET28a-ADO construct); blocks ADO with RGS5 (2-15) in [4] of 0.19 µM. For the same molecule, in assay [6], the IC50 of inhibition of ADO activity is 200 nM.
